# Laboratory results as given in patent publication US11541029B2, “High penetration compositions and their applications” (Techfields Pharma Co., Ltd., priority 2008, dated 2023).
# Legend:
# [1] = Amount of salicylic acid in rat brain tissue (blood-brain barrier), 0.5 mmol/kg; format: in vivo, rats
# Experimental: 30, 60, 120, 240, 480 minutes after the test compound was administrated, rats were decapitated and were perfused with normal Krebs-Henseleit buffer (with Heparin Sodium, pH7.4) (10 mL/min) to remove blood. […] The mixture was centrifuged for 5 minutes at 16,000 rpm. The supernatant (2 ml) was collected and evaporated to dryness.
# [2] = Amount of salicylic acid in rat plasma and brain, 0.3 mmol/kg
# Text: 20 male rats were divided into 4 groups (n=5). 0.3 mmol/kg of diethylaminoethyl acetylsalicylate.HCl salt was administrated into rats intramuscularly (20% in 70% ethanol) or transdermally (10% in 70% ethanol, on the shaved back of rat, 10 cm^2) and 0.3 mmol/kg of aspirin was administrated into rats intramuscularly (20% in 70% ethanol) or transdermally (10% in 70% ethanol, on the shaved back of rat, 10 cm^2). […] The plasma or brain tissue (the whole brain was washed with pH 7.4 buffer for 3 times) was homogenized immediately in 3-5 ml of methanol, using a tissue tearor at 30,000 rpm (about 2 min.).
# [3] = system: SLAC/DB/DB obese mice; assay: Blood glucose and blood lipid levels in DB/DB mice; format: in vivo; conditions: 30 mg/kg transdermally once per day
# Procedure, shortened: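 SLAC/DB/DB mice aged 10-12 weeks, n=7, dosed transdermally at 30 mg/kg in 25% ethanol onto a shaved 4 cm^2 back area once daily at 8 am for 5 weeks. Blood glucose measured weekly; blood lipids every other week.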
# [4] = system: autologous blood clots injected in femoral vein (pulmonary thrombus); assay: Anti-thrombosis activity, autologous blood clots in rabbits; format: in vivo, Chinese White rabbits; conditions: 50 mg/kg topically to the back twice per day, 5 days
# Experimental: Eighteen Chinese White rabbits weighing between 3.0 and 3.5 kg (aged 6-7 months) were selected and divided into three groups (control, P-1 and […] groups, n=6). One hour before the experiment, thrombi were made by aspirating venous blood (1 ml) into a sterilized bottle to clot. To avoid fragmentation and slow lysis, the autologous blood clots were stabilized in temperature-controlled (70° C.) distilled water for 10 min. After anesthesia, the femoral veins were exposed and distally isolated, and autologous blood clots (0.05 g/kg) were injected through an indwelling catheter (20GA), which had been placed in the femoral vein isolated earlier. 50 mg/kg of diethylaminoethyl acetylsalicylate.HCl salt (P-1, 10% in 25% ethanol) and diethylaminoethyl acetylsalicylsalicylate.HCl salt (P-59, 10% in 25% ethanol) were topically applied to the back of the rabbits twice per day. After 5 days, rabbits were euthanized with an excessive intravenous injection of sodium amobarbital (60 mg/kg). The lungs and hearts were isolated to observe whether thrombi were present in the pulmonary arteries. The lungs were immersed in 10% formalin for 24 h. Consecutive transverse sections along the obstructed pulmonary arteries were paraffin-embedded and stained with hematoxylin-eosine. […]
# [5] = system: fungal diseases and insects of peach trees; assay: Antiviral, anti-fungus, anti-insect activity in peach trees; format: in vivo
# Experimental: 240 Peach trees were divided into 4 groups. All field operations concerning land preparation and the uses of fertilizers were same for all groups. Group A (n=60) was control group with no chemical treatments. Group B (n=60) was normal fungicides and insecticides-treated group. Group C (n=60) was treated with N,N-diethylaminoethyl acetylsalicylate plus some insecticides. Group D (n=60) was N,N-diethylaminoethyl acetylsalicylate and N,N-diethylaminoethyl jasmonate.citric acid treated group. In group A, Peach Leaf Curl, Peach Scab, Brown Rot, Black Knot and other fungal diseases were found and different scale insects, Shothole Borer, Peach tree Borer, Lesser Peachtree Borer, fruit Moth and other diseases and insects were found. No any good (edible) fruits were harvested. In group B, 100 g of ferbam [iron tris(dimethyldithiocarbamate)] […] Group C was N,N-diethylaminoethyl acetylsalicylate-treated group. 50 g of N,N-diethylaminoethyl acetylsalicylate in 50 kg of water was applied to the group C Peach trees on November 15, March 1, March 20, and June 20, 50 g of N,N-diethylaminoethyl acetylsalicylate, 125 g of Malathion 50% EC, 125 g of 1-naphthyl methylcarbamate 50% WP and 60 g of thiophanate-methyl 50% WP in 50 kg of water was applied to the group C peach trees on April 1, April 20, May 10, and May 30. Yield 3000 kg of good (edible) peaches. […]
compound,measurement,setting,value
"CCN(CC)CCOC(=O)c1ccccc1OC(C)=O.Cl [P-1, diethylaminoethyl acetylsalicylate.HCl salt]",salicylic acid in brain tissue,"[1]; intramuscularly, 30 min",6.5 ± 2.2 nmol/g
same,salicylic acid in brain tissue,"[1]; intramuscularly, 60 min",8.2 ± 2.3 nmol/g
same,salicylic acid in brain tissue,"[1]; intramuscularly, 120 min",9.4 ± 3.1 nmol/g
same,salicylic acid in brain tissue,"[1]; intramuscularly, 240 min",8.5 ± 2.5 nmol/g
same,salicylic acid in brain tissue,"[1]; intramuscularly, 480 min",8.2 ± 2.3 nmol/g
same,salicylic acid in brain tissue,"[1]; transdermally, 30 min",3.1 ± 1.1 nmol/g
same,salicylic acid in brain tissue,"[1]; transdermally, 60 min",6.3 ± 2.3 nmol/g
same,salicylic acid in brain tissue,"[1]; transdermally, 120 min",8.2 ± 3.5 nmol/g
same,salicylic acid in brain tissue,"[1]; transdermally, 240 min",9.3 ± 3.3 nmol/g
same,salicylic acid in brain tissue,"[1]; transdermally, 480 min",9.5 ± 4.2 nmol/g
same,salicylic acid in Plasma (1 hr),[2]; intramuscularly,378 ± 34 nmol/mL
same,salicylic acid in Plasma (8 hr),[2]; intramuscularly,123 ± 25 nmol/mL
same,salicylic acid in Plasma (18 hr),[2]; intramuscularly,0.9 ± 0.2 nmol/mL
same,salicylic acid in Plasma (1 hr),[2]; transdermally,158 ± 21 nmol/mL
same,salicylic acid in Plasma (8 hr),[2]; transdermally,103 ± 28 nmol/mL
same,salicylic acid in Plasma (18 hr),[2]; transdermally,1.1 ± 0.2 nmol/mL
same,"Cholesterol (total), Day 1",[3],7.1 ± 0.4 mmol/L
same,"Cholesterol (total), Week 5",[3],4.1 ± 0.4 mmol/L
same,"Triglycerides, Day 1",[3],4.1 ± 0.5 mmol/L
same,"Triglycerides, Week 5",[3],1.5 ± 0.3 mmol/L
same,"blood glucose, Day 1",[3],14.1 ± 2.6 mmol/L
same,"blood glucose, Week 5",[3],6.8 ± 2.8 mmol/L
same,lung tissue and vascular walls (histology),[4],both lung tissue and vascular walls were normal
same,Yield of good (edible) peaches,"[5]; 60 trees per group, some insecticides/fungicides co-applied",3000 kg
same,harvest dates earlier,[5]; groups C and D,1 week
